Assay results: patent US20240366693A1, “COMPOSITIONS FOR ENHANCING IMMUNOTHERAPY EFFICACY IN COLORECTAL CANCER TREATMENT” (The Chinese University of Hong Kong, priority 2023, published 2024)

How the values were obtained:
IDO1 = IDO1 mRNA expression in human CRC cell lines induced with IFNγ; type: cell-based; details: HCT116 and LoVo; ICA 5 μM; IFNγ 100 ng/mL
Description: (§1) Total RNAs were extracted from cell pellets or colonic tissues using TRIzol Reagent (Life Technologies). Complementary DNA (cDNA) was prepared using PrimeScript RT Reagent Kit with gDNA Eraser (Takara, Shiga, Japan). The relative level of specific genes was determined by QuantStudio™ 7 Flex Real-Time PCR System (Thermo Fisher Scientific). All gene expression values were normalized to β-actin and calculated using the 2-ΔΔCt method.
Given that ICA was identified as the functional metabolite of L. gallinarum (FIG. 4), we postulated that ICA could be an IDO1 inhibitor. We added IFNγ (100 ng/mL) to induce IDO1 expression.

CD4+ T cells = assay: Foxp3+ Treg differentiation of CD4+ T cells in vitro; type: cell-based, mouse
Description: (§2) T cells were isolated from spleens of tumour-bearing mice by negative selection using magnetic cell separation (EasySep mouse T cell isolation kit, CD8+ T cell isolation kit or CD4+ CD25+ Regulatory T cell Isolation Kit II; STEMCELL Technologies, Vancouver, Canada). Isolated T cells were cultured in Roswell Park Memorial Institute 1640 medium supplemented with 10% FBS, 50 μM β-mercaptoethanol, 10 ng/ml mouse recombinant interleukin-2 (IL-2), 0.1 ng/mL transforming growth factor β (TGFβ) and activated with Dynabeads mouse anti-CD3/CD28 beads (Thermo Fisher Scientific, Waltham, MA) for 72 hours. Cells were then collected for analysis.

AHR = AHR target gene CYP1B1 expression on CD4+ T cells; type: cell-based, mouse
Description: as §2, §1

human AHR protein = target: T1, human AHR protein (Homo sapiens, UniProt P35869); assay: biochemical; type: binding
T1 sequence (P35869 11-848): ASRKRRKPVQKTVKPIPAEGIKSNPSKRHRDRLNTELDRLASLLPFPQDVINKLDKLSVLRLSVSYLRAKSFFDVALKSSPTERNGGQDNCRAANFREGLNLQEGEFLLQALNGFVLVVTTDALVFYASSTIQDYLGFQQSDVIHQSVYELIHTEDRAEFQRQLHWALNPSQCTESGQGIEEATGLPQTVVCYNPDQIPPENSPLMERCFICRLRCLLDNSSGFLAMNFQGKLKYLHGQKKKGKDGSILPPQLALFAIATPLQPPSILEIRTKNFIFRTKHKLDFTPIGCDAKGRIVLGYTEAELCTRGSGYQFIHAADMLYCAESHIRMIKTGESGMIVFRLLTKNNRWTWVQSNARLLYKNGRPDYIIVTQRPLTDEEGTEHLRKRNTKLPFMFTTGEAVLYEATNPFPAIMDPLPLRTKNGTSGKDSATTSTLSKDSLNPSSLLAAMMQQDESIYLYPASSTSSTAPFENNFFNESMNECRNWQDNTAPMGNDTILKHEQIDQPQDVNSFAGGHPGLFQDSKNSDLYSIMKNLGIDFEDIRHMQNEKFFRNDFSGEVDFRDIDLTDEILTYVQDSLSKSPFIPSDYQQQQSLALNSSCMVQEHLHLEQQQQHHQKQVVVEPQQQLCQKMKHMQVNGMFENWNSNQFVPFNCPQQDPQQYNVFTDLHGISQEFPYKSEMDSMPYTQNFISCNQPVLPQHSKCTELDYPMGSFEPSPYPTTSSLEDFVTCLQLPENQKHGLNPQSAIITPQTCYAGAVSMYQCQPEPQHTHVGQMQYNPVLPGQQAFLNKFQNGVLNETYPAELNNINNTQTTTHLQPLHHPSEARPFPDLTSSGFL
Excerpt: We also performed the surface plasma resonance (SPR) assay to explore the interaction between ICA/Kyn with the human AHR receptor. […] These support our hypothesis that ICA displaces Kyn from AHR receptor and inhibited Kyn-mediated Treg differentiation through receptor competition.

CT26 = assay: ICA model in CT26 syngeneic mice with anti-PD1 and Kyn supplementation; type: in vivo, mouse
Description: For indolecarboxylic acid (ICA) model, ICA (18 mg/kg, Sigma-Aldrich, St. Louis, MO) was gavaged to mice daily. Tumour inoculation and dosing schedule of anti-PD1 or isotype control is the same as described above. After the outgrowth of palpable tumours, kynurenine (Kyn, 10 mg/kg, Sigma-Aldrich) was intraperitoneally injected into mice twice weekly.

HCT116, LoVo, SW480 [1] = assay: Cell viability assay on CRC cells (R. intestinalis example); type: cell-based, human; details: R.i CM 5% (vol/vol); butyrate 1 mM; inosine 0.4 μg/ml
Description: 1000 cells per well were seed into a 96-well plate and treated with alive or pasteurized E. coli (CFU=10^6/ml) and R. intestinalis (CFU=10^6/ml), 5% (vol/vol) YCFA, E. coli CM, R. i CM in DMEM separately. Cell viability was determined by Thiazolyl Blue Tetrazolium Bromide (M5644, Merck KGaA, Dacmstadt, DE) 3 days constantly.

HCT116, LoVo, SW480 [2] = assay: Cell apoptosis and cell cycle (flow cytometry, western blot); type: cell-based, human; details: R.i CM 5%; butyrate 1 mM; inosine 0.4 μg/ml
Description: Flow Cytometry was used for cell apoptosis and cell cycle analysis with FACSAria cell sorter (BD Biosciences, Franklin Lakes, US). Data was analyzed by FlowJo 10.4.
Cell apoptosis was detected by FITC Annexin V apoptosis detection kit (556547, BD Biosciences, Franklin Lakes, US). Adherent cells were removed by Trypsin-EDTA solution and washed with cold PBS twice and then resuspend in binding buffer at a concentration of 1× 10^6 cells/ml. 100 μl of cell solution was transferred to a 5 ml tube, incubated with 5 μl FITC Annexin V and 5 μl PI for 15 minutes at 25° C. in the dark. Cells were added with 400 μl binding buffer to stop staining and analyzed by flow cytometer in one hour.
For cell cycle analysis, cell pellet was washed by PBS and incubated in 70 to 80% ethanol at −20° C. for more than two hours. In each test, 10^6 cells were used for staining in 0.5 ml PI/RNase staining buffer (550825, BD Biosciences, Franklin Lakes, US) for 15 minutes at room temperature in the dark. Tubes were stored at 4° C. protected from light and analyzed on flow cytometer with one hour.

CD8+ T cells [3] = assay: Cytotoxic CD8+ T cell markers, T cells from mouse spleen; type: cell-based; details: butyrate 1 mM, inosine 0.4 μg/ml
Description: (§3) T cells isolated from healthy human peripheral blood mononuclear cells (PBMC) using immunomagnetic negative selection kit (17951, Stemcell Technologies, Vancouver, CA). Isolated T cells were then cultured in complete RPMI-1640 medium supplied with human CD3/CD28 magnet beads (11161D, Thermo Fisher Scientific, Waltham, US) and 30 U/ml recombinant human IL-2 (589104, BioLgend, San Diego, US) for expiation and activation for three days. Mouse T cells were isolated from the spleen of naïve mice and purified with Mouse T cell isolation kit (19851, Thermo Fisher Scientific, Waltham, US), cultured in complete RPMI-1640 medium with mouse CD3/CD28 beads (11456D, Thermo Fisher Scientific, Waltham, US) and 30 U/ml recombinant mouse IL-2 (575404, BioLegend, San Diego, US).
(§4) Cytotoxic CD8+ T cell markers Granzyme B, IFN-γ, TNF-α under the in vitro treatments of R.i CM, NaBu or TLR5 inbibitor TH1020 (HY-116961, MedChemExpress, Monmouth Junction, US) were analyzed with flow cytometry. Isolated human T cells were stimulated with 30 ng/ml PMA, 1 μg/ml ionomycin and 2.5 μg/ml monensin in complete RPMI-1640 medium at 37° C. for 4 hours. […]

CD8+ T cells [4] = assay: Cytotoxic CD8+ T cell markers, T cells from human PBMC; type: cell-based; details: human PBMC T cells activated by α-CD3/CD28 and IL-2; butyrate 1 mM
Description: as §3, §4

Tlr5 [5] = assay: qPCR of receptors and transporters on CD8+ T cells; type: cell-based, mouse; details: butyrate treatment
Description: Total RNA was extracted with Trizol (15596018, Invitrogen, Waltham, US) from naïve mouse spleen isolated T cells after CD3/CD28/IL-2 activation and R.i CM and Butyrate treatments. Then, RNA was reverse transcript into cDNA with RT reagent kit with gDNA eraser (R[…], Takara, Tokyo, JPN). qPCR was performed using TB Green Premix (R[…], Takara) in the QuantStudio 7 Flex System (Thermo Fisher Scientific, Waltham, US). The relative RNA expression was normalized to that of β-actin as denominators.

NF-κB = assay: Phospho-NF-κB p65 in activated Jurkat E6.1 T cells; type: cell-based, human; details: α-CD3/CD28/IL-2 activated Jurkat E6.1 T cells
Description: Phospho-NF-κB p65 (Ser536) Rabbit mAb (3033, Cell Signalling Technology, Danvers, US, 1:1000) and NF-κB p65 (D14E12) Rabbit mAb (8242, Cell Signalling Technology, Danvers, US, 1:1000) were used to measure NF-κB nuclear translocation in αCD3/αCD28/IL2 activated Jurkat E6.1 T cells.
Normal human epithelial cell NCM460, human CRC cell lines HCT116, LoVo, SW480, and mouse CRC cell lines MC38 and CT26 were cultured in Dulbecco's Modified Eagle's Medium (DMEM) with 10% fetal bovine serum (FBS) and 1% penicillin-streptomycin (P/S). Jurkat E6.1 (TIB-152, ATCC) was cultured in RPMI-1640 supplied with 10% FBS and 1% penicillin-streptomycin and activated in 3 μg/ml anti-CD3 (300332, BioLgend, San Diego, US), 5 μg/ml anti-human CD28 (302934, BioLgend, San Diego, US) and 100 IU/ml recombinant human IL-2 (589104, BioLgend, San Diego, US) pre-coated wells for 3 days.

TLR5 [6] = target: TLR5 (Homo sapiens, UniProt O60602); assay: biochemical
Sequence of TLR5 (O60602 21-858, species assumed): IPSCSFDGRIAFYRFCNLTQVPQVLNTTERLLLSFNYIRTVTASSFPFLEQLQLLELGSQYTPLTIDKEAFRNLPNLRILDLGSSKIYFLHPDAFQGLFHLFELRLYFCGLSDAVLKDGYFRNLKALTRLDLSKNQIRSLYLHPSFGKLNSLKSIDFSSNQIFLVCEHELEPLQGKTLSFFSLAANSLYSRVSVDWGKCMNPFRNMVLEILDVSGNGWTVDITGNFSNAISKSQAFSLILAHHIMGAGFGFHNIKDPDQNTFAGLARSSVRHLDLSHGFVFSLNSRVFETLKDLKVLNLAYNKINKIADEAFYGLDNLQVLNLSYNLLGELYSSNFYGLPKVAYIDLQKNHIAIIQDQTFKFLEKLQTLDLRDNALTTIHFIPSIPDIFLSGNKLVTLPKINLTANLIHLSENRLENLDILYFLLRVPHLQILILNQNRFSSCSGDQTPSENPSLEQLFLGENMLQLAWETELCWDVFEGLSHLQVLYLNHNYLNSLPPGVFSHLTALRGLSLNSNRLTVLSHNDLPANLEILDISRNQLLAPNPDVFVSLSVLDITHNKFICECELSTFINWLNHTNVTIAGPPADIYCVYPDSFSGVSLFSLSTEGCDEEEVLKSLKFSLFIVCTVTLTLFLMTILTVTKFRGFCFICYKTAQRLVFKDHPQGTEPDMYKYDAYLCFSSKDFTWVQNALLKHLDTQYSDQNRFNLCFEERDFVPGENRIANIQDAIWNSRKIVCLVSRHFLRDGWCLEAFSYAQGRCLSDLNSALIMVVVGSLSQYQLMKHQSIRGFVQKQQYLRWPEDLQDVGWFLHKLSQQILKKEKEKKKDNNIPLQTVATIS

[7] = ICA 18 mg/kg daily gavage with anti-PD1 vs vehicle control

O=C(O)c1c[nH]c2ccccc12 [ICA, indole-3-carboxylic acid]
IDO1 expression (IDO1): significantly suppressed IDO1 expression | Kyn-mediated Treg differentiation (CD4+ T cells; ICA added to Kyn 50 μM): antagonized Kyn-mediated Treg differentiation in a dose-dependent manner | Treg differentiation, treatment alone (CD4+ T cells; naïve CD4+ T cells, without Kyn): none significantly affected Treg differentiation | ICA dose antagonizing Kyn-mediated Treg differentiation (CD4+ T cells; with Kyn 50 μM): ≥ 1.25 µM | Kyn-induced CYP1B1 expression (AHR; ICA added to Kyn 50 μM): markedly suppressed Kyn-induced CYP1B1 expression | CYP1B1 expression (AHR; ICA alone): weakly promoted CYP1B1 expression | Kd (human AHR protein): ~39.4 µM | IFNγ+ CD8+ T cells (CT26; ICA): increased IFNγ+ CD8+ T cells | Kyn level in serum (CT26; ICA): significantly reduced Kyn level | Kyn level in tumour (CT26; ICA): significantly reduced Kyn level | Kyn/Trp ratio in tumour (CT26; ICA): significantly reduced | Treg infiltration (CT26; ICA): reduced Treg infiltration | tumour volume (CT26; [7]): reduced tumour weight and tumour volume | tumour weight (CT26; [7]): reduced tumour weight

OC[C@H]1O[C@@H](n2cnc3c(O)ncnc32)[C@H](O)[C@@H]1O [inosine, reference compound]
cell viability of CRC cells (HCT116, LoVo, SW480 [1]): no suppressive effects | cell apoptosis (HCT116, LoVo, SW480 [2]): no suppressive effects | cell cycle (HCT116, LoVo, SW480 [2]): no suppressive effects | Granzyme B+, IFN-γ+, TNF-α+ CD8+ T cells (CD8+ T cells [3]): no effects on Granzyme B^+, IFN-γ^+, TNF-α^+ CD8^+ T cells

CCCC(=O)O [butyrate, butyric acid]
cell viability of CRC cells (HCT116, LoVo, SW480 [1]): cell viability inhibition | cell apoptosis (HCT116, LoVo, SW480 [2]): apoptosis inducement | cell cycle (HCT116, LoVo, SW480 [2]): cell cycle arrest | production of Granzyme B, IFN-γ and TNF-α in CD8+ T cells (CD8+ T cells [4]): promoted the production of Granzyme B, IFN-γ and TNF-α in CD8^+ T cells | Granzyme B+, IFN-γ+, TNF-α+ CD8+ T cells (CD8+ T cells [3]): directly boosted Granzyme B^+, IFN-γ^+, TNF-α^+ CD8^+ T cells | Tlr5 expression (Tlr5 [5]): much higher | NF-κB nuclear translocation / phospho-NF-κB expression (NF-κB): increased NF-κB nuclear translocation with higher phospho-NF-κB expression | Kd (TLR5 [6]): 264 µM
